Source: paper PMC8523698, “Preclinical characterization of an intravenous coronavirus 3CL protease inhibitor for the potential treatment of COVID19” (Nature Communications, 2021)
Where “and” joins values, the source holds several entries; their conditions need not be identical. Equal entries are not always repeated. Where two headings read alike, the source gives them in different places.

Tests used:
MATE2K = target: T1, MATE2K (Homo sapiens, UniProt Q86VL8); assay: Transporter inhibition using transfected HEK293 cells; format: in vitro ADME; conditions: IC50, [14C]Metformin (20 µM)
T1 construct: expressed in transfected cells; host or cells: HEK293
Description: For the inhibition studies, HEK293 cells were washed three times with warm transport buffer (Hanks’ balanced salt solution with 20 mM 4-(2-Hydroxyethyl) piperazine-1-ethanesulfonic acid, pH 7.4) followed by incubation with test compounds containing probe substrates: 10 or 20 µM [^14C]-metformin (OCT1, OCT2, MATE1, MATE2K), 0.5 µM [^3H] para-aminohippuric acid (OAT1), 0.1 µM [^3H] estrone-3-sulfate (OAT3) or 0.5 µM rosuvastatin (OATP1B1/1B3). Uptake was terminated by washing cells at least three times with ice-cold transport buffer and then lysing with 0.2 mL of scintillation fluid or 0.225 mL of methanol containing internal standard. For radiolabeled compounds, radioactivity in each sample was quantified by measurement on MicroBeta (Perkin Elmer). For rosuvastatin, cell extracts were dried down under nitrogen and reconstituted in 50:50 (v:v) methanol:water prior to injection onto a LC-MS/MS system. The total cellular protein content was determined by using a BCA Protein Assay Kit (Pierce Biotechnology) following the manufacturer’s protocol. Uptake ratio was then derived as a ratio of accumulation in transfected cells to accumulation in wild-type cells. The half-maximal inhibitory concentration (IC50) for each transporter was calculated in GraphPad Prism.

OCT1 = target: T2, OCT1 (Homo sapiens, UniProt O15245); assay: as above; format: in vitro ADME; conditions: IC50, [14C]Metformin (10 µM)
T2 construct: expressed in transfected cells; host or cells: HEK293
T2 sequence (O15245 1-554): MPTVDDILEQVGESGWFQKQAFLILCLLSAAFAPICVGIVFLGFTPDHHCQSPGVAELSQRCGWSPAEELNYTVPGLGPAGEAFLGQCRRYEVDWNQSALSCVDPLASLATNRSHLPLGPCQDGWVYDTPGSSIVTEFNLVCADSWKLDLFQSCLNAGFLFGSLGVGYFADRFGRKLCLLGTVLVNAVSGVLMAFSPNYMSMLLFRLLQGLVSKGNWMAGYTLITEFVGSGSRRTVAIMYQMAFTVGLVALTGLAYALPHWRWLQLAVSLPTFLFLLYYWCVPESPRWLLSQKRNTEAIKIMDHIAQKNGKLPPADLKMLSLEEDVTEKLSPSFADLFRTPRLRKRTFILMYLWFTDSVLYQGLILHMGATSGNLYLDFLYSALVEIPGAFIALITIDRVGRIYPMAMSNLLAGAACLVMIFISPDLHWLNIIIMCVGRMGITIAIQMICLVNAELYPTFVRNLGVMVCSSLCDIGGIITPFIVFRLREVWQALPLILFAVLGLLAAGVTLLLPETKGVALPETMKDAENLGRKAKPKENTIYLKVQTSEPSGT

[1] = Secondary/off-target pharmacology panel (Eurofins Cerep); conditions: assessed at 100 µM
OATP1B1 = target: T3, OATP1B1 (Homo sapiens, UniProt Q9Y6L6); assay: Transporter inhibition using transfected HEK293 cells
T3 sequence (Q9Y6L6 1-691): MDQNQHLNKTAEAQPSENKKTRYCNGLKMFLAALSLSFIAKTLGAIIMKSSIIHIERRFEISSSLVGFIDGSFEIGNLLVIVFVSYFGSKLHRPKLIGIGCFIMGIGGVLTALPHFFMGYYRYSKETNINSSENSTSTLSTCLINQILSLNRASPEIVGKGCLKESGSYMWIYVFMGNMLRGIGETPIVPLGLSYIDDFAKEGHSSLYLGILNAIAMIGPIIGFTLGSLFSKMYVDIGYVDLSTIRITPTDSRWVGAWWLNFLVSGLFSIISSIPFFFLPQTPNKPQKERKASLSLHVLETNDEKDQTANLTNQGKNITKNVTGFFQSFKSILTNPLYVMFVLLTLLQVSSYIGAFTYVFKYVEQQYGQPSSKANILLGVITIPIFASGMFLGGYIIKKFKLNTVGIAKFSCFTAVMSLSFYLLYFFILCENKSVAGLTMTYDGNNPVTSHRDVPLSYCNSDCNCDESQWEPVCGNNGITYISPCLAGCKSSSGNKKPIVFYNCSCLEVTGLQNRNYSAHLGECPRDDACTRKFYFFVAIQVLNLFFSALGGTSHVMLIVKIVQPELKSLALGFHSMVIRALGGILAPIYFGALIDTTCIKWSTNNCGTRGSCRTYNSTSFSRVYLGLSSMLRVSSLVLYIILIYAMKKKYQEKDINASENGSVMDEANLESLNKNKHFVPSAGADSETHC

T1 sequence (Q86VL8 1-566 isoform Q86VL8-3): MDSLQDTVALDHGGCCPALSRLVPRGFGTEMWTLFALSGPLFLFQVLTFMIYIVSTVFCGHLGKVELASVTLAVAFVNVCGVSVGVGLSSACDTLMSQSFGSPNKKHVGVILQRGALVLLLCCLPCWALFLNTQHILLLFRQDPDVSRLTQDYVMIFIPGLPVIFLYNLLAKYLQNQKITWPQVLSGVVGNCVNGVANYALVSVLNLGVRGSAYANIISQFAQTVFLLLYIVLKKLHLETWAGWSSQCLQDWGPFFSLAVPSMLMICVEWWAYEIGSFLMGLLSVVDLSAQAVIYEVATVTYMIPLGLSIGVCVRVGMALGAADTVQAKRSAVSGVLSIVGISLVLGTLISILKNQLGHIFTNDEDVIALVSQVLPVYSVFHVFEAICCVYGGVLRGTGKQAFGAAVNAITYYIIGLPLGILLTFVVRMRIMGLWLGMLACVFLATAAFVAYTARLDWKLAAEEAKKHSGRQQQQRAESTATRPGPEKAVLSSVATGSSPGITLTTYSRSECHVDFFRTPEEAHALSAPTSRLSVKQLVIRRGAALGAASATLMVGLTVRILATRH

Row | Compound | IC50 (MATE2K) [µM] | IC50 (MATE2K; human, HEK293 cells stably transfected with MATE2K, pH 7.4, probe [14C]-metformin (20 µM)) [µM] | IC50 (OCT1) [µM] | IC50 (OCT1; human, HEK293 cells stably transfected with OCT1, pH 7.4, probe [14C]-metformin (10 µM)) [µM] | secondary (off-target) pharmacology [1] | IC50 (OATP1B1) [µM] | IC50 (OATP1B1; human, HEK293 cells stably transfected with OATP1B1, pH 7.4, probe rosuvastatin (0.5 µM)) [µM] | IC50 (OATP1B1; IC50, Rosuvastatin (0.5 µM))
1 | COc1cccc2[nH]c(C(=O)N[C@@H](CC(C)C)C(=O)N[C@@H](C[C@@H]3CCNC3=O)C(=O)CO)cc12 [PF-00835231] | 180 | > 20 | 36.3 | > 20 | minimal potential for secondary (off-target) pharmacology | 30.1 | > 20 | 
2 | COc1cccc2[nH]c(C(=O)N[C@@H](CC(C)C)C(=O)N[C@@H](C[C@@H]3CCNC3=O)C(=O)COP(=O)(O)O)cc12 [PF-07304814] | > 300 |  | > 300 |  | minimal potential for secondary (off-target) pharmacology |  |  | 134 µM and > 130 µM
